Read-outs that look alike come from different tables or passages of the source. Where a SMILES comes first, the peptide text is derived from it. Bridges are numbered along the chain shown (N, C = ends). [ ]: non-standard residue; d: D form. R8 = C=CCCCCCC[C@@](C)(N)C(=O)O; S5 = C=CCCC[C@](C)(N)C(=O)O
How the values were obtained:
HIV-1 CA = biological target: T1, HIV-1 CA (Human immunodeficiency virus type 1 group M subtype B, UniProt P12493); experiment: Turbidity-based in vitro CA assembly assay; assay type: biochemical; conditions: turbidity at 350 nm; for Effect on CA assembly, turbidity (in words): 50 mM NaPO4 pH 8.0; for initial rate of CA assembly: compound:CA ratio 2:1, mean ± standard deviation from three experiments, DMSO control 216 ± 6.23
T1 construct: Wild-type HIV-1 CA was overexpressed and purified as previously described; made in house
Protocol: The ability of stapled peptides to disrupt CA-CA interactions was also assessed using a turbidity-based in vitro CA assembly assay. This assay is based on the observation that the turbidity of a CA-containing solution increases in proportion to the extent of assembly.
Wild-type HIV-1 CA was overexpressed and purified as previously described. […] Turbidity assays were carried out in triplicate using a Beckman spectrophotometer at a wavelength of 350 nm to monitor HIV-1 in vitro assembly conducted at ambient temperatures. Protein samples were prepared in an assembly buffer [50 mM NaPO4 pH 8.0]. In vitro assembly reactions were prepared with 250 μl of assembly buffer containing 60 μM protein. To catalyze CA assembly 250 μl of an assembly buffer containing 5M NaCl was added. The solution was mixed by agitation and transferred a cuvette for a total delay of 20 seconds. Assembly was monitored every 10 sec for the first min and every min thereafter for a total 10 min. Assembly reactions with stapled peptides were incubated in the assembly buffer for 10 min and then centrifuged for 1 min to separate any insoluble fractions before catalyzing assembly.

WT NL4-3 [1] = experiment: Virus replication in PBMC, WT; assay type: cell-based, HIV-1; conditions: PBMC from three donors, 30 μM peptide, RT activity
WT HIV-1 (NL4-3) = assay type: cell-based
V120Q/A327P mutant = experiment: Virus replication in PBMC, Env mutant; assay type: cell-based, HIV-1; conditions: PBMC from three donors, 30 μM peptide, RT activity
[2] = biological target: tip of V3 loop (15-mer V3 tip peptide); experiment: ITC binding to 15-mer V3 tip peptide; design: species or system HIV-1; conditions: 90 μM 15-mer V3 tip peptide titrated into 4.5 μM peptide, single-site model
Protocol: (§1) We also used ITC to measure the binding affinity of the stapled peptides to full-length cyclic V3 loop peptide.
(§2) Full-length V3 peptide (Cat# 1840), cyclic V3 peptide (Cat# 1837) and 15-mer overlapping V3 peptides (Cat# 1832, 6282, 6283, 6284, 6285, 6287, 6288, 6289, 6290 and 6291, for amino acid sequence see HIV-1 Subtype B (MN) Env Peptides - Complete Set Cat# 6451) were obtained through the NIH ARP.
(§3) For forward titration, 90 μM full-length V3 peptide, full-length cyclic V3 peptide or 90 μM 15-mer V3 peptides were titrated into 4.5 μM of stapled or linear peptides. Reference measurements were performed by titrating 90 μM full-length V3 peptide, full-length cyclic V3 peptide or 15-mer V3 peptide into buffer without peptide. For reverse titration, 90 μM stapled peptide was titrated into 4.5 μM full-length V3 peptide, full-length cyclic V3 peptide or […]. Reference measurements were performed by titrating 90 μM stapled peptide into buffer without peptide.

[3] = test system: HIV-1 V120Q/A327P Env mutant; assay type: cell-based
HIV-1 pNL4-3 = experiment: Virus assembly and release assay, Gag processing; assay type: cell-based; conditions: 293T cells transfected with pNL4-3, peptide for 16–20 h, ratio of Pr55Gag to p24
Protocol: This inhibition was specific to HIV-1 as the release of another lentivirus, equine infectious anemia virus (EIAV), was not inhibited. In this study we investigated whether i,i + 7 stapled CAI-derived peptides have any effect on virus release. 293T cells were transfected with the full-length HIV-1 molecular clone pNL4-3, treated with stapled peptides for 16–20 h, and metabolically labeled with [^35S]Met/Cys. The cell- and virus-associated proteins were immunoprecipitated with HIV-Ig.
Figure 6 i + 7 stapled peptides have no effect on HIV-1 release, but impair Gag processing. […] Cells were metabolically labeled with [^35S]Met/Cys for 2 h. Cells were lysed and virions were collected by ultracentrifugation. Cell and virus lysates were immunoprecipitated with HIV-Ig and subjected to SDS-PAGE. Protein band intensities were quantified by phosphorimager analysis, and HIV-1 release was calculated as the amount of virion-associated p24 relative to total (cell- plus virion-associated) Gag. (b) Accumulation of unprocessed Gag in cells was measured by calculating the ratio of Pr55^Gag to p24 in cells. P values were calculated by Student’s t-test, with P < 0.05 considered significant. N = 3, ± SD.
293T cells, plated at 3 × 10^5 cells/well in 12 well plates, were transfected with the HIV-1 molecular clone pNL4-3 [69]. […] One day posttransfection, cells were metabolically labeled with [^35S]Met/Cys for 2 h. The labeled virions were pelleted in an ultracentrifuge, and the virus and cell lysates were immunoprecipitated with pooled sera from HIV-1-infected patients (HIV-Ig, obtained from the ARP) and subjected to SDS-PAGE. Protein band intensities were quantified by phosphorimager analysis, and virus release was calculated as the amount of virion-associated Gag as a fraction of total (cell- plus virion-associated) Gag synthesized during the metabolic labeling period. Accumulation of Pr55^Gag in cells was measured by calculating the ratio of Pr55^Gag to p24 (CA).

[4] = test system: N-terminal and C-terminal V3 loop peptides; experiment: ITC binding to N-terminal and C-terminal V3 loop peptides; design: species or system HIV-1; conditions: overlapping 15-mer V3 peptides
Protocol: as §1, §2, §3

HIV-1 pNL4-3 (WT) = assay type: cell-based
WT NL4-3 [5] = experiment: Spreading virus replication in Jurkat T-cell line, RT activity, WT; assay type: cell-based, HIV-1; conditions: Jurkat cells transfected with pNL4-3 (WT), 37.5 μM peptide
[6] = 50 μM peptide during 2 h infection, TZM-bl cells, luciferase two days post-infection

Ac-ISF-R8-QLLDYY-S5-QSGSK-amide (sidechain bridge or staple) [NYAD-46]
CC 50 (μM ± SD) in MT-2 (MT-2 cells): 10.6 ± 0.6 µM

Ac-RSFE-R8-LLDYYG-S5-SGS-amide (sidechain bridge or staple) [NYAD-65]
CC 50 (μM ± SD) in MT-2 (MT-2 cells): >116 µM

ISF-R8-ELLNYY-S5-ESGS-amide (sidechain bridge or staple) [NYAD-57]
CC 50 (μM ± SD) in MT-2 (MT-2 cells): 39.6 ± 4.4 µM

Ac-R-R8-FAELLD-S5-YGESGS-amide (sidechain bridge or staple) [NYAD-63]
CC 50 (μM ± SD) in MT-2 (MT-2 cells): >113 µM

Ac-IRQGPKEPFRDYVDR-NH2 [NYAD-401, reference compound]
Effect on CA assembly, turbidity (in words) (HIV-1 CA): no observable effect on CA assembly | initial rate of CA assembly (HIV-1 CA): 223 ± 32.5 mOD/min

IRF-R8-QLLNYY-S5-ESGS-amide (sidechain bridge or staple) [NYAD-58]
CC 50 (μM ± SD) in MT-2 (MT-2 cells): 14.9 ± 1 µM

CC[C@H](C)[C@H](NC(C)=O)C(=O)N[C@@H](CO)C(=O)N[C@@H](Cc1ccccc1)C(=O)N[C@]1(C)CCCCCCC=CCCC[C@@](C)(C(=O)N[C@@H](CCC(=O)O)C(=O)N[C@@H](CC(=O)O)C(=O)N[C@@H](CCC(=O)O)C(N)=O)NC(=O)[C@H](Cc2ccc(O)cc2)NC(=O)[C@H](C)NC(=O)[C@H](CCC(N)=O)NC(=O)[C@H](CC(C)C)NC(=O)[C@H](Cc2c[nH]c3ccccc23)NC(=O)[C@H](CCC(=O)O)NC1=O [NYAD-67] (Ac-ISF[R8]EWLQAY[S5]EDE-NH2; staple 4-11)
virus replication (in words) (WT NL4-3 [1]): strongly inhibited replication of WT NL4-3 in PBMC | Effect on CA assembly, turbidity (in words) (HIV-1 CA): did not influence the rate or extent of CA assembly | initial rate of CA assembly (HIV-1 CA): 205 ± 18.89 mOD/min | fold reduction of virus infectivity, WT (WT HIV-1 (NL4-3)): > 40 fold | % toxicity at that dose (number in parenthesis) (MT-2 cells): 0% | CC 50 (μM ± SD) in MT-2 (MT-2 cells): > 107.4 µM | virus replication (in words) (V120Q/A327P mutant): showed some antiviral activity against the V120Q/A327P mutant | Kd [2]: 8.92 ± 1.8 µM | fold reduction of virus infectivity, V120Q/A327P double mutant [3]: ~ 2.5 fold | Accumulation of cell-associated Pr55Gag (in words) (HIV-1 pNL4-3): modest accumulation of cell-associated Pr55^Gag | binding to N-terminal and C-terminal V3 loop peptides (in words) [4]: neither N-terminal nor C-terminal V3 loop peptides bind | Cell penetration (in words) (293T cells): penetrate cells less efficiently than NYAD-1 | reduction in infectivity of virions produced from treated cells (HIV-1 pNL4-3 (WT)): two-log reduction in infectivity | virus replication (in words) (WT NL4-3 [5]): completely blocked

Ac-ISFDELLDYYGESGS [NYAD-41]
% FAM (293T cells; FACS, 293T cells, 4 μM FAM-conjugated peptide, 20 h at 37°C, serum-free media, 0.25% Trypsin-EDTA 30 min): 1.43%

Ac-RRF-R8-ELLDYY-S5-ESGS-amide (sidechain bridge or staple) [NYAD-62]
CC 50 (μM ± SD) in MT-2 (MT-2 cells): 15.4 ± 0.2 µM

Ac-ISF-R8-ELLDYY-S5-ESGSKKK-amide (sidechain bridge or staple) [NYAD-44]
CC 50 (μM ± SD) in MT-2 (MT-2 cells): 17.2 ± 1.4 µM

Ac-ISF-R8-ELLDYY-S5-EKSGSKD-amide (sidechain bridge or staple) [NYAD-55]
CC 50 (μM ± SD) in MT-2 (MT-2 cells): >89.7 µM

Ac-ISF-R8-ELEDYY-S5-ESGS (sidechain bridge or staple) [NYAD-43]
CC 50 (μM ± SD) in MT-2 (MT-2 cells): >106.6 µM

Ac-ISF-R8-ELLRYY-S5-R-amide (sidechain bridge or staple) [NYAD-56]
CC 50 (μM ± SD) in MT-2 (MT-2 cells): 16.4 ± 1.2 µM

Ac-RSF-R8-RLLDYY-S5-ESGS-amide (sidechain bridge or staple) [NYAD-61]
CC 50 (μM ± SD) in MT-2 (MT-2 cells): 31.7 ± 1.4 µM

Ac-SK-R8-ELLDYY-S5-ESGS-amide (sidechain bridge or staple) [NYAD-64]
CC 50 (μM ± SD) in MT-2 (MT-2 cells): >109 µM

CC[C@H](C)[C@H](NC(C)=O)C(=O)N[C@@H](CO)C(=O)N[C@@H](Cc1ccccc1)C(=O)N[C@]1(C)CCCCCCC=CCCC[C@@](C)(C(=O)N[C@@H](CCC(=O)O)C(=O)N[C@@H](CC(=O)O)C(N)=O)NC(=O)[C@H](Cc2ccc(O)cc2)NC(=O)[C@H](Cc2ccc(O)cc2)NC(=O)[C@H](CC(=O)O)NC(=O)[C@H](CC(C)C)NC(=O)[C@H](CC(C)C)NC(=O)[C@H](CCC(=O)O)NC1=O [NYAD-66] (Ac-ISF[R8]ELLDYY[S5]ED-NH2; staple 4-11)
virus replication (in words) (WT NL4-3 [1]): strongly inhibited replication of WT NL4-3 in PBMC | Effect on CA assembly, turbidity (in words) (HIV-1 CA): reduced the extent of CA assembly in a dose-dependent manner | initial rate of CA assembly (HIV-1 CA): 166 ± 18.91 mOD/min | fold reduction of virus infectivity, WT (WT HIV-1 (NL4-3); [6]): around 3 fold | % toxicity at that dose (number in parenthesis) (MT-2 cells): 0% | CC 50 (μM ± SD) in MT-2 (MT-2 cells): > 115 µM | virus replication (in words) (V120Q/A327P mutant): showed some antiviral activity against the V120Q/A327P mutant | fold reduction of virus infectivity, V120Q/A327P double mutant [3, 6]: less than 2 fold | Accumulation of cell-associated Pr55Gag (in words) (HIV-1 pNL4-3): modest accumulation of cell-associated Pr55^Gag | Cell penetration (in words) (293T cells): penetrate cells less efficiently than NYAD-1 | reduction in infectivity of virions produced from treated cells (HIV-1 pNL4-3 (WT); 293T producer cells treated with 50 μM peptide for two days, RT-normalized virus on TZM-bl, luciferase): four-fold | virus replication (in words) (WT NL4-3 [5]): significantly delayed

Ac-ISF-R8-EWLQYY-S5-R-amide (sidechain bridge or staple) [NYAD-33]
CC 50 (μM ± SD) in MT-2 (MT-2 cells): 9.2 ± 0.26 µM
